Here are results for 23 molecules from patent publication US7151105B2, “Inhibitors of Hepatitis C virus RNA-dependent RNA polymerase, and compositions and treatments using the same” (Agouron Pharmaceuticals, Inc., priority 2004, dated 2006).

Where a name gives a salt, the structure may show the parent alone.

This assay deals with T1, Recombinant HCV polymerase (Hepatitis C virus genotype 1b, UniProt P26663).
T1 construct: Recombinant HCV polymerase was tested for its ability to perform primer/template-directed transcription
T1 sequence (P26663 2420-3010): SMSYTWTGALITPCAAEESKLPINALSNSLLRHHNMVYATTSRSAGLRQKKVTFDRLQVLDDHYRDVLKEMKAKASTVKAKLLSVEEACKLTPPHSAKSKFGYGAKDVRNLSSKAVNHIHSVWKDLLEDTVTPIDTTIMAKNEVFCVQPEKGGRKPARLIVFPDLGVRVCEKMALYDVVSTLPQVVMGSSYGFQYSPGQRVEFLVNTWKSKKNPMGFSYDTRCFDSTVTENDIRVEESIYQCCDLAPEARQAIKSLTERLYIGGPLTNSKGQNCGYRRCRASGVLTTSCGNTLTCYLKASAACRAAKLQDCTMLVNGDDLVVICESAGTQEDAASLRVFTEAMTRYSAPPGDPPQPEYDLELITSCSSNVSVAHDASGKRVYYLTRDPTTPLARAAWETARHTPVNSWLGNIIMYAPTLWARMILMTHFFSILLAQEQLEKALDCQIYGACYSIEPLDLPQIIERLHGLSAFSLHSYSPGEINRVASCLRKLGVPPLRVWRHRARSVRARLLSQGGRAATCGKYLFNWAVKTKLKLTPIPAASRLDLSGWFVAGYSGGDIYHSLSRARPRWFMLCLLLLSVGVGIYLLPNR
Kind of assay: biochemical. Particulars: inhibition of polymerase-directed transcription; 30 min at 30° C; 30 nM enzyme; cpm data in triplicate. Here is the method: The compounds described herein were tested for activity with HCV polymerase. Recombinant HCV polymerase was tested for its ability to perform primer/template-directed transcription in assays that contained 30 mM tris-HCl pH 7.2, 10 mM MgCl2, 20 mM NaCl, 1 mM Dithiothreitol (DTT), 0.05% Tween-20, 1% glycerol, 5 pmoles biotin-dG12 (primer), 0.5 pmoles poly(rC)300 (template), 1 μM GTP, 0.1–0.3 uCi α-^32P-GTP, and 2.5 pmoles (0.15 μg) HCV polymerase protein in a final volume of 75 μL. Reactions were initiated by addition of enzyme and incubated 30 minutes at 30° C. Reactions were stopped by addition of 33 mM EDTA, and polynucleotide products were collected by filtration through Diethylaminoethyl (DE) Filtermat papers (Wallac). Unincorporated triphosphate was removed by washing the filters with 5% dibasic sodium phosphate. The filters were counted in a Packard Tri-Lux Microbeta scintillation counter (Packard Bioscience, Meriden, Conn.). Compounds to be tested were added at various concentrations, e.g., 1 μm to 50 μm, from stocks in 10% DMSO-water (final DMSO is 1% in reaction).
IC50 values were estimated from the primary cpm data (collected in triplicate) using the formula: cpm (I)=cpm (no inhibitor)(1−([I]/([I]+IC50))). […] A percent inhibition value is expressed for a compound where it was impractical to calculate an IC50 value with available data.
For orientation: IC50 means the concentration needed to halve the response being measured. For `Cc1cc(C)n2nc(CC3=C(O)CC(CCc4cc(CC(F)(F)F)nc(CC(F)(F)F)c4)(C4CCCC4)OC3=O)nc2n1` (single isomer, unassigned; enantiomer 1) [A(10), Enantiomer 1 of 6-{2-[2,6-Bis(2,2,2-trifluoroethyl)pyridin-4-yl]ethyl}-6-cyclopentyl-3-[(5,7-dimethyl[1,2,4]triazolo[1,5-a]pyrimidin-2-yl)methyl]-4-hydroxy-5,6-dihydro-2H-pyran-2-one], the IC50 is 3 nM.

As for `CCc1cc(CCC2(C3CCCC3)CC(O)=C(Cc3nc4nc(C)cc(C)n4n3)C(=O)O2)ccc1CN1CCOCC1` (single isomer, unassigned) [A(156), 6-Cyclopentyl-3-[(5,7-dimethyl[1,2,4]triazolo[1,5-a]pyrimidin-2-yl)methyl]-6-{2-[3-ethyl-4-(morpholin-4-ylmethyl)phenyl]ethyl}-4-hydroxy-5,6-dihydro-2H-pyran-2-one], the IC50 turned out to be 5 nM.

Consider `CCc1cc(CCC2(C3CCCC3)CC(O)=C(Cc3nc4nc(C)cc(C)n4n3)C(=O)O2)ccc1CN` (centres unmarked) [A(125), 6-{2-[4-(Aminomethyl)-3-ethylphenyl]ethyl}-6-cyclopentyl-3-[(5,7-dimethyl[1,2,4]triazolo[1,5-a]pyrimidin-2-yl)methyl]-4-hydroxy-5,6-dihydro-2H-pyran-2-one hydrochloride], for which the IC50 turned out to be 10 nM.

Turning to `CCC(C#N)(CC)c1ccc(CCC2(C3CCCC3)CC(O)=C(Cc3nc4nc(C)cc(C)n4n3)C(=O)O2)cc1C(F)(F)F` (single isomer, unassigned) [A(155), 2-[4-(2-{2-Cyclopentyl-5-[(5,7-dimethyl[1,2,4]triazolo[1,5-a]pyrimidin-2-yl)methyl]-4-hydroxy-6-oxo-3,6-dihydro-2H-pyran-2-yl}ethyl)-2-(trifluoromethyl)phenyl]-2-ethylbutanenitrile], the IC50 was determined as 54 nM.

Turning to `COc1ccc(CCC2(C3CCCC3)CC(O)=C(Cc3nc4nc(C)cc(C)n4n3)C(=O)O2)cc1C(F)(F)F` (centres unmarked) [A(23), 6-Cyclopentyl-3-[(5,7-dimethyl[1,2,4]triazolo[1,5-a]pyrimidin-2-yl)methyl]-4-hydroxy-6-{2-[4-methoxy-3-(trifluoromethyl)phenyl]ethyl}-5,6-dihydro-2H-pyran-2-one], the IC50 is 6 nM.

For `CCOc1cnc(CC)cc1CCC1(C2CCCC2)CC(O)=C(Cc2nc3nc(C)cc(C)n3n2)C(=O)O1` (centres unmarked) [A(27), 6-Cyclopentyl-3-[(5,7-dimethyl[1,2,4]triazolo[1,5-a]pyrimidin-2-yl)methyl]-6-[2-(5-ethoxy-2-ethylpyridin-4-yl)ethyl]-4-hydroxy-5,6-dihydro-2H-pyran-2-one], the IC50 was 3 nM.

With `CCc1cc(CCC2(C3CCCC3)CC(O)=C(Cc3nc4nc(C)cc(C)n4n3)C(=O)O2)ccc1CO` (single isomer, unassigned; enantiomer 1) [A(114), Enantiomer 1 of 6-cyclopentyl-3-[(5,7-dimethyl[1,2,4]triazolo[1,5-a]pyrimidin-2-yl)methyl]-6-{2-[3-ethyl-4-(hydroxymethyl)phenyl]ethyl}4-hydroxy-5,6dihydro-2H-pyran-2-one], the IC50 came out at 5 nM.

`CCc1cc(CCC2(C3CCCC3)CC(O)=C(Cc3nc4ncc(C)cn4n3)C(=O)O2)cc(CC)n1` (centres unmarked) [A(36)]: the IC50 turned out to be 30 nM.

In the case of `CS(=O)(=O)c1ccc(CCC2(C3CCCC3)CC(=O)CC(=O)O2)cc1F` (centres unmarked) [A(63), 6-Cyclopentyl-6-{2-[3-fluoro-4-(methylsulfonyl)phenyl]ethyl}dihydro-2H-pyran-2,4(3H)-dione], the IC50 worked out at 18500 nM.

In the case of `CCOc1cc(O)c(CC)cc1CCC1(C2CCCC2)CC(O)=C(Cc2nc3ncc(C)cn3n2)C(=O)O1` (centres unmarked) [A(26), 6-Cyclopentyl-6-[2-(2-ethoxy-5-ethyl-4-hydroxyphenyl)ethyl]-4-hydroxy-3-[(6-methyl[1,2,4]triazolo[1,5-a]pyrimidin-2-yl)methyl]-5,6-dihydro-2H-pyran-2-one], the IC50 turned out to be 4 nM.

For `CCc1cc(CCC2(C3CCCC3)CC(=O)CC(=O)O2)c(OC)cn1` (centres unmarked) [A(2), 6–Cyclopentyl-6-[2-(2-ethyl-5-methoxypyridin-4-yl)ethyl]dihydro-2H-pyran-2,4(3H)-dione], the IC50 worked out at 620 nM.

Take `Cc1cc(C)n2nc(CC3=C(O)CC(CCc4cc(CC(F)(F)F)nc(CC(F)(F)F)c4)(C4CCCC4)OC3=O)nc2n1` (centres unmarked) [A(9), 6-{2-[2,6-Bis(2,2,2-trifluoroethyl)pyridin-4-yl]ethyl}-6-cyclopentyl-3-[(5,7-dimethyl[1,2,4]triazolo[1,5-a]pyrimidin-2-yl)methyl]-4-hydroxy-5,6-dihydro-2H-pyran-2-one]: the IC50 was 5 nM.

On to `CCc1ccnc(CCC2(C3CCCC3)CC(O)=C(Cc3nc4nc(C)cc(C)n4n3)C(=O)O2)c1` (centres unmarked) [A(15), 6-Cyclopentyl-3-[(5,7-dimethyl[1,2,4]triazolo[1,5-a]pyrimidin-2-yl)methyl]-6-[2-(4-ethylpyridin-2-yl)ethyl]-4-hydroxy-5,6-dihydro-2H-pyran-2-one], for which the IC50 stood at 7 nM.

`CCc1cc(CCC2(C3CCCC3)CC(O)=C(Cc3nc4nc(C)cc(C)n4n3)C(=O)O2)ccc1CCCOC` (centres unmarked) [A(20), 6-Cyclopentyl-3-[(5,7-dimethyl[1,2,4]triazolo[1,5-a]pyrimidin-2-yl)methyl]=6-{2-[3-ethyl-4-(3-methoxypropyl)phenyl]ethyl} -4-hydroxy-5,6-dihydro-2H-pyran-2-one]: the IC50 came to 9 nM.

With `CCc1cc(CCC2(C3CCCC3)CC(O)=C(Cc3nc4nc(C)cc(C)n4n3)C(=O)O2)c(OCC2CC2)cc1O` (centres unmarked) [A(32), 6-Cyclopentyl-6-{2-[2-(cyclopropylmethoxy)-5-ethyl-4-hydroxyphenyl]ethyl}-3-[(5,7-dimethyl[1,2,4]triazolo[1,5-a]pyrimidin-2-yl)methyl]-4-hydroxy-5,6-dihydro-2H-pyran-2-one], the IC50 came to 5 nM.

As to `CCc1cc(CCC2(C3CCCC3)CC(O)=C(Cc3nc4nc(C)cc(C)n4n3)C(=O)O2)ccc1-c1ncco1` (centres unmarked) [A(134), 6-cyclopentyl-3-[(5,7-dimethyl[1,2,4]triazolo[1,5-a]pyrimidin-2-yl)methyl]-6-{2-[3-ethyl-4-(1,3-oxazol-2-yl)phenyl]ethyl}-4-hydroxy-5,6-dihydro-2H-pyran-2-one], the IC50 stood at 3 nM.

For the molecule `Cc1cc(C)n2nc(CC3=C(O)CC(CCc4ccc(S(C)(=O)=O)c(Cl)c4)(C4CCCC4)OC3=O)nc2n1` (centres unmarked) [B(1), 6-{2-[3-Chloro-4-(methylsulfonyl)phenyl]ethyl}-6-cyclopentyl-3-[(5,7-dimethyl[1,2,4]triazolo[1,5-a]pyrimidin-2-yl)methyl]hydroxy-5,6-dihydro-2H-pyran-2-one], the IC50 is 60 nM.

Take `CN(C)c1c(CC2=C(O)CC(CCc3ccc(C(C)(C)C#N)c(F)c3)(C3CCCC3)OC2=O)c(C(F)F)nn1C` (centres unmarked) [Example B(51), 2-{4-[2-(2-Cyclopentyl-5-{[3-(difluoromethyl)-5-(dimethylamino)-1-methyl-1H-pyrazol-4-yl]methyl}-4-hydroxy-6-oxo-3,6-dihydro-2H-pyran-2-yl)ethyl]-2-fluorophenyl}-2-methylpropanenitrile]: the IC50 turned out to be 24 nM.

Consider `Cn1cc(CC2=C(O)CC(CCc3ccc(C(C)(C)C#N)c(F)c3)(C3CCCC3)OC2=O)cn1` (centres unmarked) [A(86), 2-[4(2-{2-Cyclopentyl-hydroxy-5[(1-methyl-1H-pyrazol-4-yl)methyl]-6-oxo-3,6-dihydro-2H-pyran-2-yl}ethyl)-2-fluorophenyl]-2-methylpropanenitrile], for which the IC50 was determined as 86 nM.

For the molecule `CCCOc1cnc(CC)cc1CCC1(C2CCCC2)CC(O)=C(Cc2nc3nc(C)cc(C)n3n2)C(=O)O1` (single isomer, unassigned) [A(54), 6-Cyclopentyl-3-[(5,7-dimethyl[1,2,4]triazolo[1,5-a]pyrimidin-2-yl)methyl]-6-[2-(2-ethyl-5-propoxypyridin-4-yl)ethyl]-4-hydroxy-5,6-dihydro-2H-pyran-2-one], the IC50 was 3 nM.

Consider `Cn1nc(C(F)(F)F)c(CC2=C(O)CC(CCc3ccc(C(C)(C)C#N)c(F)c3)(C3CCCC3)OC2=O)c1Cl` (centres unmarked) [A(97), 2-{4-[2-(5-{[5-Chloro-1-methyl-3-(trifluoromethyl)-1H-pyrazol-4-yl]methyl}-2-cyclopentyl-4-hydroxy-6-oxo-3,6-dihydro-2H-pyran-2-yl)ethyl]-2-fluorophenyl}-2-methylpropanenitrile], for which the IC50 was 11 nM.

Take `CCc1cc(CCC2(C3CCCC3)CC(O)=C(Cc3nc4nc(C)cc(C)n4n3)C(=O)O2)ccc1CC#N` (single isomer, unassigned; enantiomer 2) [A(117), Enantiomer 2 of [4(2-{2-Cyclopentyl-5[(5,7-dimethyl[1,2,4]triazolo[1,5-a]pyrimidin-2-yl)methyl]-4-hydroxy-6-oxo-3,6dihydro-2H-pyran-2-yl}ethyl)-2-ethylphenyl]acetonitrile]: the IC50 is 5 nM.

Turning to `Cc1cnc2nc(CC3=C(O)CC(CCc4cc(CC(F)(F)F)nc(CC(F)(F)F)c4)(C4CCCC4)OC3=O)nn2c1` (centres unmarked) [A(48), 6-{2-[2,6-Bis(2,2,2-trifluoroethyl)pyridin-4-yl]ethyl}-6-cyclopentyl-4-hydroxy-3-[(6-methyl[1,2,4]triazolo[1,5-a]pyrimidin-2-yl)methyl]-5,6-dihydro-2H-pyran-2-one], the IC50 is 23 nM.
